# Laboratory results published in ChEMBL document CHEMBL2040846, “A new 9,11-secosterol from the soft coral Sinularia granosa” (Bioorg Med Chem Lett, 2012).
# Tests used:
# [1] = system: RAW264.7; experiment: Antiinflammatory activity in mouse RAW264.7 cells assessed as inhibition of LPS-induced COX2 expression at 10 uM incubated for 10 mins prior to LPS-challenge measured after 16 hrs by Western blot analysis relative to control; assay type: functional
# [2] = system: RAW264.7; experiment: Antiinflammatory activity in mouse RAW264.7 cells assessed as inhibition of LPS-induced iNOS expression at 10 uM incubated for 10 mins prior to LPS-challenge measured after 16 hrs by Western blot analysis relative to control; assay type: functional
# [3] = system: RAW264.7; experiment: Effect on beta-actin protein expression in LPS-induced mouse RAW264.7 cells at 10 uM incubated for 10 mins prior to LPS-challenge measured after 16 hrs by Western blot analysis relative to control; assay type: ADME, cell-based; details: raw264.7, 16 h
# [4] = system: MCF7; experiment: Antiproliferative activity against human MCF7 cells after 6 days by MTT assay; assay type: functional; details: MCF7, 144 h, read-out: ED50 (the source's name)
# [5] = system: HeLa; experiment: Antiproliferative activity against human HeLa cells after 6 days by MTT assay; assay type: functional; details: 144 h, read-out: ED50 (the source's name)
# [6] = system: Daoy; experiment: Antiproliferative activity against human DaOY cells after 6 days by MTT assay; assay type: functional; details: 144 h, read-out: ED50 (the source's name)
# [7] = system: RAW264.7; experiment: Toxicity against mouse RAW264.7 cells; assay type: cell-based
# [8] = system: HEp-2; experiment: Antiproliferative activity against human Hep2 cells after 6 days by MTT assay; assay type: functional; details: HEp-2, 144 h, read-out: ED50 (the source's name)
Activity [3] [%],EC50 [4] [µg/mL],EC50 [5] [µg/mL],Compound,inhibition at 10 µM [1] [%],inhibition at 10 µM [2] [%],EC50 [6] [µg/mL],Activity [7],EC50 [8] [µg/mL]
102.3,4.99,8.21,C=C(CC[C@@H](C)[C@H]1CC[C@@H]([C@H]2C[C@@H]3O[C@@]34C[C@@H](O)CC[C@]4(C)C2=O)[C@]1(C)CCO)C(C)C,42.7,66.1,5.53,Non-toxic,6.21
108.9,9.98,> 40,C=C(CC[C@@H](C)[C@H]1CC[C@@H]([C@@H]2C[C@H]3O[C@]34C[C@@H](O)CC[C@]4(C)C2=O)[C@]1(C)CCO)C(C)C,–,19.4,7.07,Non-toxic,> 40
–,0.09,0.13,CO[C@@]12[C@H](COC(N)=O)C3=C(C(=O)C(C)=C(N)C3=O)N1C[C@@H]1N[C@@H]12 [MITOMYCIN],–,–,0.08,–,0.12
